{"source": "paper PMC9095466", "about": "(Nature, 2022)", "test_system": "SARS-CoV-2 (USA-WA1/2020, lineage A)", "assay": "K18-hACE2 mouse model of SARS-CoV-2, H&E histopathology of lung and brain", "details": "8-day regimen", "key": {"[1]": {"details": "individual mice, tissue at death or end-point"}}, "note": "Values joined by “and” are separate entries in the source; they are usually repeats but may differ in a detail not shown here. Identical values can stand only once.", "data": [{"smiles": "CS(=O)(=O)NC(CCC(N)=O)C(=O)NC(Cc1ccccc1)C(=O)NC(CCCNC(=N)N)C(=O)c1nc2ccccc2s1", "note": "(stereo not shown) [Compound N-0385, Ms-QFR-kbt]", "values": [{"measurement": "Brain lesions (H&E)", "setting": "N-0385: surviving mice, day 14", "value": "absent"}, {"measurement": "Perivascular infiltrates in CNS score", "setting": "individual mice, most severely affected vessel", "value": "0 and 1"}, {"measurement": "Alveolar cells score", "setting": "[1]", "value": "2 ((2) 10–25% affected) and 1 ((1) <10% affected) and 0"}, {"measurement": "Alveolar edema score", "setting": "[1]", "value": 0}, {"measurement": "Alveolar fibrin score", "setting": "[1]", "value": 0}, {"measurement": "Fibrosis score", "setting": "[1]", "value": "2 ((2) 10–25% affected) and 1 ((1) <10% affected) and 0"}, {"measurement": "Interstitial infiltrates in lung score", "setting": "[1]", "value": "2 ((2) 10–25% affected) and 1 ((1) <10% affected) and 0"}, {"measurement": "Lymphoid hyperplasia score", "setting": "[1]", "value": "1 ((1) <10% affected) and 0"}, {"measurement": "Perivascular infiltrate in lung score", "setting": "[1]", "value": "3 ((3) 26–50% affected) and 1 ((1) <10% affected) and 0"}, {"measurement": "Type II pneumocyte hyperplasia score", "setting": "[1]", "value": "2 ((2) 10–25% affected) and 1 ((1) <10% affected) and 0 and 3 ((3) 26–50% affected)"}]}]}
